According to patent US6610297B1, “Peptide immunogens for vaccination against and treatment of allergy” (Novartis AG, priority 1996, dated 2003):
Where no end group is shown, it is not given here.

Assays:
BSW17/IgE binding = assay: Competition RIA: binding of 125I-labelled IgE to BSW17 in the presence of phage particles; design: species or system human; details: FIG. 6; for Inhibition of labelled IgE binding to BSW17, equal to non-labelled IgE concentration: 10^11 cfu/ml of phage particles, estimated from standard inhibition curve
Method: Bacterial cells are grown in SB containing 10 μg/ml of tetracycline and 50 μg/ml of carbenicillin to OD600=0.4, then VCS M13 helper phage is added and incubation continued for 2 hours at 37°. Then kanamycin is added to a final concentration of 70 μg/ml and incubation continued overnight. Phage particles are precipitated with polyethyleneglycol. Soft RIA plates are coated with 20 μg/ml of BSW17 in 0.1 M carbonate buffer pH 9.6 and then blocked with TBS containing 1.5% casein. Human IgE is ^125I-labelled by the chloramine-T method and 100000 cpm per well are used for binding to BSW17 coated to the RIA plates in the presence of increasing concentrations of non-labelled IgE (standard curve) or phage particles, respectively. All experiments are performed at room temperature and plates are washed 3 times with 0.9% NaCl+0.05% Tween 20, cut in pieces and each well was measured in a γ-counter for 1 minute.
Closed circles show a standard inhibition curve by unlabelled IgE to allow an estimation of inhibition of labeled IgE binding in the presence of 10^11 cfu/ml of phage particles. The inhibition achieved with the phage clones is equal to non-labelled IgE concentrations of 1 μg/ml and 1.7 μg/ml, respectively.

BSW17 [1] = assay: ELISA: binding of mimotope-displaying phage particles to coated BSW17; details: FIG. 5; phage titer 10^9 cfu/ml; 10 μg coated antibody
Method: (§1) 10 μg of BSW17 and various monoclonal antibodies are coated to the wells of COSTAR® plates following standard ELISA procedures. After blocking with BSA, the wells are incubated with 100 μl of standard ELISA incubation buffer containing bacteriophage particles obtained from phage-infected bacterial culture supernatants with a phage titer of 10^9 cfu/ml. After washing, the plates are incubated with 5 μg of horseradish peroxidase (HRP)-coupled anti-M13 antiserum (Pharmacia, Uppsala, Sweden) in incubation buffer. All incubations are carried out at room temperature for 1 hour. After final washing, phage particles bound to the coated antibodies are visualized via the bound HRP-anti M13 serum by chromogenic substrate development following standard ELISA procedure. […] As negative non-antibody control, recombinant FcεRI α-chain and as positive control, wells coated with polyclonal anti-M13 antiserum are included.

human IgE = assay: Anti-IgE response in rabbits immunized with BSW17 mimotope displaying phage (dot ELISA of serum); format: in vivo; details: rabbit serum 1:200 after third boost
Chain of human IgE (P01854 1-428 isoform P01854-1): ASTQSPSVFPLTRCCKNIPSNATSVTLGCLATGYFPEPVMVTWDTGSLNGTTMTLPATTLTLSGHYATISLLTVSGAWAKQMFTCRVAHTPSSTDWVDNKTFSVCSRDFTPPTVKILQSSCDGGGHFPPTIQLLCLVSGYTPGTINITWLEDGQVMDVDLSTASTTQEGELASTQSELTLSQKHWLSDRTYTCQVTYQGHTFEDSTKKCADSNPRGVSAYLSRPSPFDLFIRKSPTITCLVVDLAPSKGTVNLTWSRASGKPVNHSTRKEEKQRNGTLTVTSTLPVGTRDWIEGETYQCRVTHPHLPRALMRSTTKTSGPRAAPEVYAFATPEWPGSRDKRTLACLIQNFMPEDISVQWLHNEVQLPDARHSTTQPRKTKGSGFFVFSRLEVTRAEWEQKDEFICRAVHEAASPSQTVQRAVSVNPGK
Method: To test the feasibility of a BSW17 mimotope-based vaccine approach, rabbits are immunized with phage particles displaying BSW17 mimotope peptides and helper phage VCS M13 as control, respectively. 10^12 cfu of freshly prepared phage particles are dialyzed against PBS at 4°. 1 ml is emulsified with complete Freund's adjuvant for the first immunization, or with 1 ml incomplete Freund's adjuvant for boosting. Immunization is repeated subcutaneously every 14 days. After the third boost, 12 ml of blood are taken, clotted for 4 hours at room temperature in glass vials and centrifuged for 10 minutes at 2000 g. The supernatants are tested for the presence of anti-human IgE antibodies by ELISA. Human IgE from three different individuals (SUS11-IgE; PS-IgE; WT-IgE) is diluted in PBS at a concentration of 50 μg/ml and 1 μl aliquots are dotted onto nitrocellulose. Nitrocellulose is blocked in TBS containing 1.5% casein for 1 hour. Rabbit serum is diluted 1:200 in TBS containing 1.5% casein and incubated overnight. Washing is performed in TBS, TBS-0.05% Tween 20 and TBS for 10 minutes each. Developing goat anti-rabbit-HRP is 1:1.000 diluted in TBS containing 1.5% casein and incubated for 4 hours. Washing and staining is performed as described. […] However, in addition to a massive immune response to the bacteriophage pVIII coat protein, sera of rabbits immunized with BSW17 mimotope phages also contain strongly elevated levels of antibodies which specifically recognize human IgE: […]

BSW17/IgE interaction = assay: Competition ELISA: inhibition of BSW17-HRP/IgE interaction by sera of immunized rabbits; format: in vivo, human; details: rabbit serum 1:50, BSW17-HRP 1:50000
Chain of BSW17/IgE interaction (P01854 1-428 isoform P01854-1): as above
Method: After washing, mAb BSW17 labeled with horseradish peroxidase (BSW17-HRP) is added in a 1:50000 dilution in TBS containing 1.5% casein for 4 hours. Subsequent washing and staining is performed as described.

[2] = system: 8E7, 3G9, 5H10 (monoclonal anti-Cε3 antibodies) and 5H5/F8 (against human FcεRIα); assay: ELISA: binding of mimotope-displaying phage particles to other coated monoclonal antibodies; details: FIG. 5; phage titer 10^9 cfu/ml; 10 μg coated antibody
Method: as §1

BSW17 [3] = assay: Recognition of phage-displayed peptides by BSW17 (phage display library screening); format: binding; design: key: + + +: +(++), +/− = intensity of recognition by BSW 17; +(++), +/− = intensity of recognition by BSW 17; +(++), +/− = intensity of recognition by BSW 17; + /−: +(++), +/− = intensity of recognition by BSW 17; details: phage-displayed circular peptides, group A
Method: Bacteriophage particles specifically recognized by BSW17 are identified by biopanning of phage libraries displaying linear or circular random peptides from 6 to 15 amino acid residues in length fused to phage peptides pIII and pVIII, respectively. For amplification of phage libraries, 2 ml of a liquid culture of E. coli XL-I blue grown in SB medium to OD600=1.0 are incubated with 10^10 phages for 15 minutes at room temperature. 10 ml of SB medium containing […] of tetracycline and 20 μg/ml of carbenicillin are added and 10 μl, 1 μl and 0.1 μl, respectively, are plated on LB plates containing 100 μg/ml of carbenicillin. The culture is incubated at 37° with vigorous shaking for one hour, then 100 ml of SB containing 10 μg/ml of tetracycline and 50 μg/ml of carbenicillin are added and incubation is continued for one hour. 10^12 cfu of VCS M13 helper phage are added. After 2 hours with vigorous shaking at 37°. kanamycin is added to a final concentration of 70 μg/ml and incubation continued overnight. After centrifugation at 4000 g and 4° for 20 minutes, supernatants are mixed with 38 ml of an ice-cold sterile filtered solution of 12% NaCl and 16% PEG 8000, cooled on ice for 30 minutes and centrifuged for 30 minutes at 10000 g at 4°. The phage pellet is solubilized in 2 ml of TBS containing 1.5% casein and stored at 4°. For biopanning, COSTAR® RIA plates (Costar 3690) are coated over-night at 4° with 20 μg/ml of BSW17 in 0.1 M carbonate buffer, pH 9.6, and thereafter blocked with TBS containing 1.5% casein. 2×10^11 cfu of phages are added and incubated at 37° for 2 hours, then washed ten times with PBS/0.1% Tween 20. The wells are rinsed with water and the bound phages eluted with a total of 200 μl of 0.1 M HCl, pH 2.2 for 10 minutes. Eluted phages are neutralized with 2 M Tris base and amplified as described above.
For the selection of positive clones 50 μl of a E. coli XL-I blue liquid culture grown in SB-medium to OD600=1.0 are incubated with 1 μl of a 10^−8 dilution of amplified phages after the 3rd round of panning for 15 minutes at room temperature, then plated on LB plates containing 100 μg/ml of carbenicillin and grown overnight. Colonies are randomly picked and plated on LB plates containing 100 μg/ml of carbenicillin. After 4 hours at 37°, nitrocellulose filters soaked with 10 mM of IPTG are put on top and incubation continued overnight at 32°. Filters are removed and incubated at 37° for 30 minutes in a CHCl3-atmosphere. […]
The nucleotide sequence of the DNA encoding these peptides was determined. […]

BSW17 [4] = assay: ELISA: recognition of coated mimotope conjugates by BSW17; format: binding; details: FIGS. 8a, 8b, 9a, 9b
Method: Microtiter plate wells are coated with 1 μg each of SDS236, SDS237 or free KLH and incubated with increasing concentrations of BSW17. Bound antibody is detected with goat anti-mouse IgG-HRP (gamIgG-HRP). The data shown represents means of duplicates minus background binding to uncoated (BSA-blocked) wells.
FIG. 8b summarizes ELISA data obtained with various BSW17 mimotope conjugates coupled to the carrier protein using several chemical coupling procedures. Microtiter plate wells are coated with 5 μg each of the mimotope conjugates, or free KLH, and incubated with 10 μg of BSW17. Bound antibody is detected with gamIgG-HRP. The data shown represents means of duplicates minus background binding to uncoated (BSA-blocked) wells. In contrast to free KLH, each BSW17 mimotope conjugate is found to be recognized by BSW17.
In FIGS. 9a and 9b it is shown that BSW17 mimotopes coupled to KLH or BSA are specifically recognized by BSW17 and not by the non-related monoclonal antibodies 3G9 (anti-human Cε3) and 5H5/F8 (anti-human RIα). Again, microtiter plate wells are coated with 5 μg each of the mimotope conjugates shown and incubated with 10 μg of the corresponding monoclonal antibody. Bound antibody is detected with gamIgG-HRP. The data shown represents means of duplicates minus background binding to uncoated (BSA-blocked) wells.

human IgE (human) = human IgE (human) (UniProt P01854); assay: cell-based or functional assay
Chain of human IgE (human) (P01854 other isoform, or with tags, fused parts or gaps): as the sequence (P01854 1-428 isoform P01854-1) above

“CINHRGYWVC (cysteine pairing not given here) [PhBSW.29-8]” was tested, and the “Inhibition of the binding of BSW17 to IgE (in words)” value (BSW17/IgE binding) was “inhibit the binding of BSW17 to IgE”, the “Inhibition of labelled IgE binding to BSW17, equal to non-labelled IgE concentration” value (BSW17/IgE binding) was 1.7 µg/mL and the “Binding of phage particles to BSW17” value (BSW17 [1]) was “very specifically bind to BSW17”. For the same substance, the “Recognition of IgE (relative OD) PS-IgE” value (human IgE) was 9.0 ± 0.4 relative OD, the “Recognition of IgE (relative OD) SUS11-IgE” value (human IgE) was 16.5 ± 0.7 relative OD and the “Recognition of IgE (relative OD) WT-IgE” value (human IgE) was 25.0 ± 1.0 relative OD. The “Recognition of different IgE (% inhibition) PS-IgE” value (BSW17/IgE interaction) was 48%, the “Recognition of different IgE (% inhibition) SUS11-IgE” value (BSW17/IgE interaction) was 52% and the “Recognition of different IgE (% inhibition) WT-IgE” value (BSW17/IgE interaction) was 65%. For the same substance, the “Recognition of different IgE (% inhibition) Zavasal-IgE” value (BSW17/IgE interaction) was 47%, the “Binding of phage particles to other antibodies (8E7, 3G9, 5H10, 5H5/F8)” value [2] was “to no other antibodies” and the “intensity of recognition by BSW 17” value (BSW17 [3]) was “+ + +”.
With “CRRHNYGFWVC (cysteine pairing not given here) [PhBSW.6-9]” the “Inhibition of the binding of BSW17 to IgE (in words)” value (BSW17/IgE binding) was “inhibit the binding of BSW17 to IgE”, the “Inhibition of labelled IgE binding to BSW17, equal to non-labelled IgE concentration” value (BSW17/IgE binding) was 1 µg/mL and the “Binding of phage particles to BSW17” value (BSW17 [1]) was “very specifically bind to BSW17”. The “Recognition of IgE (relative OD) PS-IgE” value (human IgE) was 8.0 ± 0.6 relative OD, the “Recognition of IgE (relative OD) SUS11-IgE” value (human IgE) was 5.0 ± 0.2 relative OD and the “Recognition of IgE (relative OD) WT-IgE” value (human IgE) was 21.0 ± 1.0 relative OD. For the same substance, the “Recognition of different IgE (% inhibition) PS-IgE” value (BSW17/IgE interaction) was 63%, the “Recognition of different IgE (% inhibition) SUS11-IgE” value (BSW17/IgE interaction) was 34% and the “Recognition of different IgE (% inhibition) WT-IgE” value (BSW17/IgE interaction) was 65%. For the same substance, the “Recognition of different IgE (% inhibition) Zavasal-IgE” value (BSW17/IgE interaction) was 51%, the “Binding of phage particles to other antibodies (8E7, 3G9, 5H10, 5H5/F8)” value [2] was “to no other antibodies” and the “intensity of recognition by BSW 17” value (BSW17 [3]) was “++”.
With “CTRLHTGYWVC (cysteine pairing not given here) [Seq.id.no. 20]” the “intensity of recognition by BSW 17” value (BSW17 [3]) was “+”.
For “Cys Thr Leu Ser Val Phe Gly Tyr Trp Val Cys (CTLSVFGYWVC; cysteine pairing not given here; also: circular) [Seq.id.no. 21]”, the “intensity of recognition by BSW 17” value (BSW17 [3]) was “+ /−”.
With cyclic GEFCINHRGYWVCGDPA-KLH [SDS236] the “Recognition of conjugate by BSW17” value (BSW17 [4]) was “recognized by BSW17 in a dose-dependent manner”.
keyhole limpet hemocyanin [KLH] was tested, and the “Recognition of conjugate by BSW17” value (BSW17 [4]) was “no binding”.
linear KTKGSGFFVF-KLH [SDS237] was tested, and the “Recognition of conjugate by BSW17” value (BSW17 [4]) was “recognized by BSW17 in a dose-dependent manner”.
Substance monoclonal antibody BSW17 has a Specific histamine release (%), A: during sensitization with IgE and BSW17; Experiment 1 (human IgE (human)) of 3.6%, a Specific histamine release (%), A: during sensitization with IgE and BSW17; Experiment 2 (human IgE (human)) of 3% and a Specific histamine release (%), A: during sensitization with IgE and BSW17; Experiment 3 (human IgE (human)) of 4.4%. For the same substance, the Specific histamine release (%), B: after triggering with Le27; cells sensitized with IgE and BSW17; Experiment 1 (human IgE (human)) was 3.1%, the Specific histamine release (%), B: after triggering with Le27; cells sensitized with IgE and BSW17; Experiment 2 (human IgE (human)) was 1.5% and the Specific histamine release (%), B: after triggering with Le27; cells sensitized with IgE and BSW17; Experiment 3 (human IgE (human)) was 0.9%.
